# Molecular target: Metabotropic glutamate receptor 4 (Homo sapiens, UniProt Q14833)
# Test: Receptor Activity Assay: The disclosed compounds and compositions can be evaluated for their ability to act as a potentiator of metabotropic glutamate receptor activity, in particular mGluR4 activity, by any suitable known methodology known in the art. For example, Chinese Hamster Ovary (CHO) cells transfected with human mGluR4 or HEK cells co-transfected with rat mGuR4 and the G-protein regulated Inwardly Rectifying Potassium channel (GIRK) were plated in clear bottom assay plates for assay in a Hamamatsu FDSS Fluorometric Plate Reader. The cells were loaded with either a Ca2+-sensitive fluorescent dye or the thallium responsive dye and the plates were washed and placed into a suitable kinetic plate reader. For human mGuR4 assays, a fluorescence baseline was established for 3-5 seconds, the disclosed compounds were then added to the cells, and the response in cells was measured. Approximately two and a half minutes later, a concentration of mGuR4 orthosteric agonist (e.g. glutamate or L-AP4) eliciting approximately 20% (EC20) of the maximal agonist response was added to the cells, and the response was measured. Two minutes later, a concentration of mGluR4 agonist (e.g. glutamate or L-AP4) eliciting 80% (EC80) of the maximal agonist response was added to the cells, and the response was measured. For rat mGuR4/GIRK experiments, a baseline was established for approximately five seconds, disclosed compounds were added, and either an EC20 or EC80 concentration of agonist was added approximately two and one half minutes later.
# Chain of Metabotropic glutamate receptor 4 (Q14833 whole entry): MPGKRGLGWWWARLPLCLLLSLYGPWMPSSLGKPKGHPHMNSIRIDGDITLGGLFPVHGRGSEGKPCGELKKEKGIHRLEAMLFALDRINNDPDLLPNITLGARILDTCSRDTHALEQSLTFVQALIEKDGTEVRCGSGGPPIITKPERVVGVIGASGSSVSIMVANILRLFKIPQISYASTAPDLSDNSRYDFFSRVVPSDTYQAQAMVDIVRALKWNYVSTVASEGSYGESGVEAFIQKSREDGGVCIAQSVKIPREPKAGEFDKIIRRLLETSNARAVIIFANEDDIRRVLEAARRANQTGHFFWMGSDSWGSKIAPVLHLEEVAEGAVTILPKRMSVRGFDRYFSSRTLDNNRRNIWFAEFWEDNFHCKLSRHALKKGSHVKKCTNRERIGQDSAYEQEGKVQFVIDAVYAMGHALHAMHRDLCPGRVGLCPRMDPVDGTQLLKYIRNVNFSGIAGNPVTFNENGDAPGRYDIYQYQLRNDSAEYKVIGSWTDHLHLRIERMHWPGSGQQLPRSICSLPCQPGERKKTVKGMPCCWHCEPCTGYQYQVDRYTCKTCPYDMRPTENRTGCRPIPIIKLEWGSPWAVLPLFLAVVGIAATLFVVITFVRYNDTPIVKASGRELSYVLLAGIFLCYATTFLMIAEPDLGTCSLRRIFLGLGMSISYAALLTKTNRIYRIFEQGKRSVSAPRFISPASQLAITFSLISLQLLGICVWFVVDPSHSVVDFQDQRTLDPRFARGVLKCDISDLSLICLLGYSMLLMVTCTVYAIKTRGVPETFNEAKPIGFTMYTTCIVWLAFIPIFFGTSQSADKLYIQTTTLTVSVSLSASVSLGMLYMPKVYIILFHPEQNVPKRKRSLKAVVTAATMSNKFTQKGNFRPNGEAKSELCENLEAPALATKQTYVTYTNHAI
row,SMILES,EC50
1,c1cc2cc(Nc3n[nH]c4nccnc34)ccc2c(O[C@H]2CCOC2)n1,0.0221 µM
2,Fc1cnc2c(Nc3ccc4c(O[C@H]5CCOC5)nccc4c3)n[nH]c2c1,0.0823 µM
3,COCCOc1nccc2cc(Nc3n[nH]c4ncccc34)ccc12,0.0515 µM
4,c1cnc2c(Nc3ccc4c(O[C@@H]5CCOC5)nccc4c3)n[nH]c2c1,0.0361 µM
5,c1cnc2c(Nc3ccc4c(O[C@@H]5CCCOC5)nccc4c3)n[nH]c2c1,0.0319 µM
6,c1cnc2c(Nc3ccc4c(OCC5CCCOC5)nccc4c3)n[nH]c2c1 (stereo not drawn),0.0157 µM
7,C[C@H]1OCC[C@H]1Oc1nccc2cc(Nc3n[nH]c4cccnc34)ccc12,0.0559 µM
8,c1cnc2c(Nc3ccc4c(O[C@H]5CCCOC5)nccc4c3)n[nH]c2c1,0.0273 µM
9,c1cc2cc(Nc3n[nH]c4nccnc34)ccc2c(OCC2CCOCC2)n1,0.0161 µM
10,C[C@@H]1C[C@H](Oc2nccc3cc(Nc4n[nH]c5cccnc45)ccc23)CO1,0.0483 µM
11,c1cnc2[nH]nc(Nc3ccc4c(OCC5CCOCC5)nccc4c3)c2c1,0.0459 µM
12,CO[C@H](C)COc1nccc2cc(Nc3n[nH]c4cccnc34)ccc12,0.0145 µM
13,c1cc2cc(Nc3n[nH]c4nccnc34)ccc2c(O[C@@H]2CCOC2)n1,0.0436 µM
14,C[C@H]1C[C@H](Oc2nccc3cc(Nc4n[nH]c5ncccc45)ccc23)CO1,0.0707 µM
15,C[C@H]1OCC[C@H]1Oc1nccc2cc(Nc3n[nH]c4ncccc34)ccc12,0.154 µM
16,COCCOc1nccc2cc(Nc3n[nH]c4nccnc34)ccc12,0.0352 µM
17,C[C@@H]1C[C@H](Oc2nccc3cc(Nc4n[nH]c5ncccc45)ccc23)CO1,0.152 µM
18,COCCOc1nccc2cc(Nc3n[nH]c4ncc(F)cc34)ccc12,0.0823 µM
19,Fc1cnc2[nH]nc(Nc3ccc4c(OC5CCOCC5)nccc4c3)c2c1,0.118 µM
20,c1cnc2[nH]nc(Nc3ccc4c(OCC5CCOC5)nccc4c3)c2c1 (stereo not drawn),0.0543 µM
21,c1cnc2[nH]nc(Nc3ccc4c(O[C@H]5CCOC5)nccc4c3)c2c1,0.0442 µM
22,c1cc2cc(Nc3n[nH]c4nccnc34)ccc2c(OCC2CCOC2)n1 (stereo not drawn),0.0104 µM
23,c1cnc2c(Nc3ccc4c(OC5CCOCC5)nccc4c3)n[nH]c2c1,0.0126 µM
24,c1cnc2[nH]nc(Nc3ccc4c(OCC5COCCO5)nccc4c3)c2c1 (stereo not drawn),0.121 µM
25,CO[C@H](C)COc1nccc2cc(Nc3n[nH]c4ncccc34)ccc12,0.0771 µM
26,c1cc2cc(Nc3n[nH]c4nccnc34)ccc2c(OCC2COCCO2)n1 (stereo not drawn),0.0285 µM
27,c1cnc2c(Nc3ccc4c(OCCN5CCOCC5)nccc4c3)n[nH]c2c1,0.0412 µM

# Results, then the compound that gave them:
row,EC50,SMILES
1,0.0175 µM,CO[C@H](C)COc1nccc2cc(Nc3n[nH]c4nccnc34)ccc12
2,0.0215 µM,CCOCCOc1nccc2cc(Nc3n[nH]c4nccnc34)ccc12
3,0.0126 µM,c1cnc2c(Nc3ccc4c(OCC5COCCO5)nccc4c3)n[nH]c2c1 (stereo not drawn)
4,0.0484 µM,CCOCCOc1nccc2cc(Nc3n[nH]c4ncccc34)ccc12
5,0.0223 µM,CCOCCOc1nccc2cc(Nc3n[nH]c4cccnc34)ccc12
6,0.0199 µM,COCCOc1nccc2cc(Nc3n[nH]c4cccnc34)ccc12
7,0.064 µM,c1cnc2[nH]nc(Nc3ccc4c(O[C@@H]5CCOC5)nccc4c3)c2c1
8,0.069 µM,COCCOc1nccc2cc(Nc3n[nH]c4cc(F)cnc34)ccc12
9,0.0359 µM,Fc1cnc2c(Nc3ccc4c(OCC5COCCO5)nccc4c3)n[nH]c2c1 (stereo not drawn)
10,0.0269 µM,C[C@H]1C[C@H](Oc2nccc3cc(Nc4n[nH]c5cccnc45)ccc23)CO1
11,0.0376 µM,c1cnc2c(Nc3ccc4c(O[C@H]5CCOC5)nccc4c3)n[nH]c2c1
12,0.148 µM,c1cnc2[nH]nc(Nc3ccc4c(OCCN5CCOCC5)nccc4c3)c2c1
13,0.012 µM,c1cnc2c(Nc3ccc4c(OCC5CCOC5)nccc4c3)n[nH]c2c1 (stereo not drawn)
14,0.0116 µM,c1cnc2c(Nc3ccc4c(OCC5CCOCC5)nccc4c3)n[nH]c2c1
15,0.0752 µM,c1cnc2[nH]nc(Nc3ccc4c(OCC5CCCCO5)nccc4c3)c2c1 (stereo not drawn)
16,0.0769 µM,COCCOc1nccc2cc(Nc3n[nH]c4ccccc34)ccc12

# — ChEMBL document CHEMBL5728383, “Isoquinoline ether compounds as mGluR4 allosteric potentiators, compositions, and methods of treating neurological dysfunction” (2021)
